Measured values as given in patent US20140038205A1, “METHODS AND COMPOSITIONS RELATING TO COAGULATION ASSAYS” (Precision BioLogic Inc., priority 2011, published 2014).

Assays:
[1] = test system: unfractionated heparin (UFH); test: aPTT assay, neutralization of heparin in heparinized plasma; format: biochemical; details: plasma containing up to 2 U/mL of UFH; FIG. 1 and FIG. 4
Source text: PF4 tetramers form a cylindrical structure displaying an equatorial ring of positively charged amino acids around which the polyanionic heparin molecules wrap and bind with exceptionally high affinity. The formation of a PF4-heparin complex strongly impairs the capacity of heparin to bind AT and stimulate its anticoagulant activity.
(§1) In the aPTT (also referred to as “partial thromboplastin time” or “PTT”) assay, the sample is then mixed with a phospholipid, an activator such as silica, celite, kaolin or ellagic acid, and calcium. The contact activator is used to stimulate production of Factor XIIa. The phospholipids form complexes that activate Factor X and prothrombin. Calcium is used to reverse the anticoagulant effects of the oxalate or citrate. The mixture is then allowed to form a thrombus (clot) and the time to do so is measured. An abnormal or prolonged aPTT time will vary depending on the population and local normal ranges should be known. However, as a general guideline, values over 39 seconds may be considered abnormal and prolonged according to the invention, and such samples may be candidates for further analysis using the methods of the invention.
The PF4-based reagent may be used for the in vitro neutralization of heparin in samples as assessed by the aPTT assay. […]

[2] = test system: non-heparinized plasma; test: aPTT assay of non-heparinized plasma; format: biochemical; details: FIG. 2 and FIG. 3
Source text: as §1
The PF4-based reagent may be used for the in vitro neutralization of heparin in samples as assessed by the aPTT assay. To ensure an accurate aPTT result the reagent must act specifically to reverse only anticoagulant activity associated with heparin, and otherwise have no effect on the plasma clotting time. […] This phenomenon might be due to PF4-induced stimulation of the thrombin-mediated cleavage of protein C to generate the potent anticoagulant activated protein C (APC). APC acts to inactivate coagulation Factors Va and VIIIa by proteolysis. […]

[3] = molecular target: T1, PF4 (Homo sapiens, UniProt P02776); details: rank: heparin>heparan sulfate>dermatan sulfate>chondroitin-6-sulfate>chondroitin-4-sulfate; cited from earlier work
T1 sequence (P02776 32-101): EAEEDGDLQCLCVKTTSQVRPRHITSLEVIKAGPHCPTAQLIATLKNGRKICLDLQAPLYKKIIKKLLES

[4] = relative to heparin; cited from earlier work

Substance | neutralization of heparin anticoagulant activity (aPTT) [1] | effect on the aPTT of non-heparinized plasma [2] | relative binding affinity for PF4 [3] | anti-coagulant potency [4]
platelet factor 4 [PF4] | fully corrected to baseline | gradual prolongation of the aPTT | – | –
chondroitin-4-sulfate | – | – | low relative affinity for PF4 | much lower than that of heparin
